The text below walks through data of article PMC4324364 (MedChemComm, 2014).

Broadly, the EC50 is the concentration that produces a half-maximal response.

One data set in a line: Metabolic stability. The settings on record: in vitro ADME assays.
Another data set concerns L. major amastigotes. The conditions noted are these: read-out: L. major Amast EC50, previously reported data; cited from earlier work.
Data set [1] concerns HepG2 cell line. The settings on record: compound marked as previously reported data; cited from earlier work.
In data set [2] the test system is T. brucei. Description: T. brucei cell growth inhibition. The format is cell-based, Trypanosoma brucei.
Data set [3] has as its system T. brucei. The settings on record: cited from earlier work.
The subject of another data set is L. major promastigotes. The settings on record: read-out: L. major Promast EC50, previously reported data; cited from earlier work.
Data set [4] deals with P. falciparum (D6 strain). The conditions noted are these: read-out: P. falciparum D6 EC50, previously reported data; cited from earlier work.
The test system of the next data set is T. cruzi. The conditions noted are these: read-out: T. cruzi EC50; previously reported data, same assay; cited from earlier work.
The conditions of data set [5]: cited from earlier work.
Data set [6] has as its system T. brucei. The conditions noted are these: read-out: T. brucei EC50; previously reported data, same assay; cited from earlier work.
For data set [7] the following is noted: cited from earlier work. This is another data set of the same source.
Data set [8] concerns HepG2 cell line. The experiment in a line: HepG2 host cell toxicity. The format is cell-based, human.

Where two headings read alike, the source gives them in different places.

`Cc1cc(-c2cc3ncnc(Nc4ccc(OCc5cccc(F)c5)c(Cl)c4)c3s2)cnc1N1CCOCC1` [11e]: the metabolic stability entry in “Metabolic stability” is recorded as “modest”.
As for `Fc1cccc(COc2ccc(Nc3ncnc4ccc(-c5ccc(N6CCOCC6)cc5)cc34)cc2Cl)c1` [4k], the EC50 in the data set with L. major amastigotes is greater than 15000 nM. Moreover, in the data set with HepG2 cell line [1], the “HepG2 TC50 (concentration leading to 50% growth inhibition of host cells)” value was 9600 nM.
As for `Fc1cccc(COc2ccc(Nc3ncnc4ccc(-c5ccc(CN6CCOCC6)cc5)cc34)cc2Cl)c1` [4j], the “HepG2 TC50 (concentration leading to 50% growth inhibition of host cells)” value in the data set on HepG2 cell line [1] is 12900 nM.
On to `Fc1cccc(COc2ccc(Nc3ncnc4cc(C#C[C@@H]5CCCN5)sc34)cc2Cl)c1` [GW837016X], for which the “potency against T. brucei (in words)” value in the data set with T. brucei [2] is recorded as “potent”.
Consider `CS(=O)(=O)CCNCc1ccc(-c2ccc3ncnc(Nc4ccc(OCc5cccc(F)c5)c(Cl)c4)c3c2)o1` [compound 1, lapatinib, reference compound], for which the “cure of infected mice” value in the data set on T. brucei [3] (murine model of HAT) was 25%.
With `Fc1cccc(COc2ccc(Nc3ncnc4ccc(-c5cccc(N6CCOCC6)c5)cc34)cc2Cl)c1` [compound 2], the EC50 in the data set with L. major promastigotes is 2970 nM; in data set [4], 230 nM; in the data set with T. cruzi it was 1800 ± 900 nM; in the data set with T. brucei [6], 42 ± 10 nM. Besides, the “effect on parasitemia and life extension” value in the data set on T. brucei [3] (murine T. brucei bloodstream infection) is “modest effect”. The metabolic stability entry in the data set “Metabolic stability” is reported as “modest”. The plasma protein binding in data set [5] was greater than 99%. The “central nervous system exposure” value in [7] is “lack of central nervous system exposure”. For the same molecule, the oral bioavailability entry in data set [7] (mice) is listed as “orally bioavailable”.
Take `Fc1cccc(COc2ccc(Nc3ncnc4ccc(-c5ccccc5)cc34)cc2Cl)c1` [4b]: the EC50 in the data set with L. major amastigotes is greater than 15000 nM. Also, the “HepG2 TC50 (concentration leading to 50% growth inhibition of host cells)” value in the data set on HepG2 cell line [1] was 4900 nM.
In the case of `Fc1cccc(COc2ccc(Nc3ncnc4sc(-c5ccccc5)cc34)cc2Cl)c1` [18b], the “HepG2 TC50 (concentration leading to 50% growth inhibition of host cells)” value in the data set on HepG2 cell line [8] was 10000 nM.
